Test results as given in patent US9229013B2, “Vasoactive hormone-based stratification of patients suffering from diseases related to endothelial function/dysfunction” (B.R.A.H.M.S GMBH, priority 2009, dated 2016).
Where “and” joins values, the source holds several entries; their conditions need not be identical. Equal values may be shown once.

System: patients suffering from shortness of breath (SOB), acute coronary syndrome, acute heart failure (AHF), arrhythmia, asthma exacerbation, bronchitis, chest pain …
Parameters: species or system human
Conditions: in vivo
Excerpt: Suitable threshold levels for the stratification of subjects into different groups (categories) have to be determined for each particular combination of vasoactive hormone or fragments thereof or precursors or fragments thereof, medication and disease. This can e.g. be done by grouping a reference population of patients according to their level of vasoactive hormone into certain quantiles, e.g. tertiles, quartiles, quintiles or even according to suitable percentiles. […] A HR around 1 (e.g. +/−0.1) indicates no elevated risk but also no benefit from medication for the particular group of patients.
Survival rates, i.e. the proportion of patients surviving at a given time after entry into the studies, are plotted in the appended figures over time for different combinations of a particular vasoactive hormone with a particular medication. The patients have been stratified into quintiles according to their respective hormone levels. […] For some cases, two or more quintiles have been pooled were appropriate. Hazard ratios (HR) have been calculated for various combinations of particular vasoactive hormones with particular medications. HR have also been calculated for particular quintiles and/or pooled quintiles and compared to overall HR for each combination.

SMILES: CC(=O)CC(c1ccccc1)c1c(O)c2ccccc2oc1=O (stereo not shown) [Warfarin]
- HR Medicament (overall patient group): 1.6 and 1 and 1.3 and 0.8
